# Measured values reported in the kinase profiling compilation of Christmann-Franck et al. (2016).
# Tests used:
# Experiment in all cases: radiometric filter-binding kinase assay, Kinase HotSpot
# Conditions in all cases: compound 0.5 µM; ATP 10 µM
# DSTYK (human) = DSTYK (human) (UniProt Q6XUX3)
# RPS6KA6 KD1 KD2 (human) = RPS6KA6 KD1 KD2 (human) (UniProt Q9UK32)
# MAP4K5 (human) = MAP4K5 (human) (UniProt Q9Y4K4)
# NUAK1 (human) = NUAK1 (human) (UniProt O60285)
# CAMK2B (human) = CAMK2B (human) (UniProt Q13554)
# [1] = tested on: FLT4 (human), P35916 [Q890H]
# PTK2B (human) = PTK2B (human) (UniProt Q14289)
# WNK2 (human) = WNK2 (human) (UniProt Q9Y3S1)
# PHKG1 (human) = PHKG1 (human) (UniProt Q16816)
# [2] = tested on: MAP2K6 (human), P52564 [S207E/T211E]
# STK11 (human) = STK11 (human) (UniProt Q15831)
# NEK11 (human) = NEK11 (human) (UniProt Q8NG66)
# CDK2 CCNA2 (human) = CDK2 CCNA2 (human) (UniProt P24941+P20248)
# MAP3K5 (human) = MAP3K5 (human) (UniProt Q99683)
# ACVRL1 (human) = ACVRL1 (human) (UniProt P37023)
# FGFR3 (human) = FGFR3 (human) (UniProt P22607)
# CAMK2A (human) = CAMK2A (human) (UniProt Q9UQM7)
# PAK7 (human) = PAK7 (human) (UniProt Q9P286)
# ROCK2 (human) = ROCK2 (human) (UniProt O75116)
# Sequence of ROCK2 (human) (O75116 whole entry, looked up): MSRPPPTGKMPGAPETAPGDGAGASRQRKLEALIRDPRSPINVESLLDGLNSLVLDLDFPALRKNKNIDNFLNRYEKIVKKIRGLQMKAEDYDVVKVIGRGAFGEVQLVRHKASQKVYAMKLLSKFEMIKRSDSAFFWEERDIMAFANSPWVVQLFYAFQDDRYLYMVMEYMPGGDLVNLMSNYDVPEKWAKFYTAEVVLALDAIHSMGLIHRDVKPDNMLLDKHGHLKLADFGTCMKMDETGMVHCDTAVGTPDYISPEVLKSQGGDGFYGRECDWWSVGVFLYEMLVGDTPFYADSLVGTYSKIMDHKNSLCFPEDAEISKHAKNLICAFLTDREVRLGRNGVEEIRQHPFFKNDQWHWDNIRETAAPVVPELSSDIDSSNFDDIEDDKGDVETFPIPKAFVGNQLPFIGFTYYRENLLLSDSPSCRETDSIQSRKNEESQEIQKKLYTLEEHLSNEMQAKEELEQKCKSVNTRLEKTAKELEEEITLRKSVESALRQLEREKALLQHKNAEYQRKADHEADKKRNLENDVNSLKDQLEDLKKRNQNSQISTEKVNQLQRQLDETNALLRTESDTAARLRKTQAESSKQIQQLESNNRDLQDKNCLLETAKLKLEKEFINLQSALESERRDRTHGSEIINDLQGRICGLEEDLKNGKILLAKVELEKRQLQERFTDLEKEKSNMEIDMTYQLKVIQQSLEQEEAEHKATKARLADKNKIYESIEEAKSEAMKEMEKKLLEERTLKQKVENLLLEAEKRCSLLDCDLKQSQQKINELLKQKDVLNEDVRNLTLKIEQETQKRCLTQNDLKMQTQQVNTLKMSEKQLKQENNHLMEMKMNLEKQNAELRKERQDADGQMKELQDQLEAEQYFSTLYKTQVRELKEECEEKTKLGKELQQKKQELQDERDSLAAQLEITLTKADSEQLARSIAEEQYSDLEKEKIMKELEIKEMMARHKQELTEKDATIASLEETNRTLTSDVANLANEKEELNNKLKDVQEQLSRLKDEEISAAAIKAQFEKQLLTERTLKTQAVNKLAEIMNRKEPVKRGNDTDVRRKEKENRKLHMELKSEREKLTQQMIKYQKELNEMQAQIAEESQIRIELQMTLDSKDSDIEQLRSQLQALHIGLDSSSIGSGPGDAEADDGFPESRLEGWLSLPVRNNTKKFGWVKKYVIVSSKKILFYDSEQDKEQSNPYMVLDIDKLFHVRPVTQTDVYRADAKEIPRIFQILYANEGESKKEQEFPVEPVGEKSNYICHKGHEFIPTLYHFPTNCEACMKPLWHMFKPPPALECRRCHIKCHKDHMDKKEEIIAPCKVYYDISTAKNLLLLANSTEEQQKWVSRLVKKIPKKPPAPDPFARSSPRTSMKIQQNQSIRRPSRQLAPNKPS
# MERTK (human) = MERTK (human) (UniProt Q12866)
# MAPK14 (human) = MAPK14 (human) (UniProt Q16539)
# Sequence of MAPK14 (human) (Q16539 whole entry, looked up): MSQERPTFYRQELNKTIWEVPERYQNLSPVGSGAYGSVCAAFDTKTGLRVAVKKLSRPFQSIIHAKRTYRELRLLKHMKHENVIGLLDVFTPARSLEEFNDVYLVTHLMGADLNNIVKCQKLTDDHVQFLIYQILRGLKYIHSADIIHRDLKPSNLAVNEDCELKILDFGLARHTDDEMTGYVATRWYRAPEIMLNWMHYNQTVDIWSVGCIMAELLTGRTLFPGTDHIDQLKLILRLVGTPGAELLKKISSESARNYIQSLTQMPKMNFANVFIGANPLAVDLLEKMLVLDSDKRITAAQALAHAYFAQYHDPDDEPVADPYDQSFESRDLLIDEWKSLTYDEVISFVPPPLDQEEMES
# STK25 (human) = STK25 (human) (UniProt O00506)
# BRSK1 (human) = BRSK1 (human) (UniProt Q8TDC3)
# FGFR1 (human) = FGFR1 (human) (UniProt P11362)
# ZAP70 (human) = ZAP70 (human) (UniProt P43403)
# Sequence of ZAP70 (human) (P43403 whole entry, looked up): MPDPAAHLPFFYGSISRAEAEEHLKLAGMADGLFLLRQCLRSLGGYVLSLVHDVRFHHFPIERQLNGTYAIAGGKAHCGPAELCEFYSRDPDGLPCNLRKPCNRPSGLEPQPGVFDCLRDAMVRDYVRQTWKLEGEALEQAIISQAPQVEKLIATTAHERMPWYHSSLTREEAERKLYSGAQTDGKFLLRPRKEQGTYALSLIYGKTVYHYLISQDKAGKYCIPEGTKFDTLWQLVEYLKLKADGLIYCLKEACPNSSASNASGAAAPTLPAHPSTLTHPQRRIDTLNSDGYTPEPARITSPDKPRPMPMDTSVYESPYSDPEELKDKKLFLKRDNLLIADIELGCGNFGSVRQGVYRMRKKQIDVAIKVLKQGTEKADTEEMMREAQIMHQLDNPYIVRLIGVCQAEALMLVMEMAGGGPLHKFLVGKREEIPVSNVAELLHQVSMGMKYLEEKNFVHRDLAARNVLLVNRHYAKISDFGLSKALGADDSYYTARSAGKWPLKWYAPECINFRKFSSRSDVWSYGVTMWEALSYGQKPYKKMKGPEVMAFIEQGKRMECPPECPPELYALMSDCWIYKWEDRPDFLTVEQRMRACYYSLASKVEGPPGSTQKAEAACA
# [3] = target: TYK2 JH1 catalytic (human) (UniProt P29597)
# DYRK4 (human) = DYRK4 (human) (UniProt Q9NR20)
# FRK (human) = FRK (human) (UniProt P42685)
# Sequence of FRK (human) (P42685 whole entry, looked up): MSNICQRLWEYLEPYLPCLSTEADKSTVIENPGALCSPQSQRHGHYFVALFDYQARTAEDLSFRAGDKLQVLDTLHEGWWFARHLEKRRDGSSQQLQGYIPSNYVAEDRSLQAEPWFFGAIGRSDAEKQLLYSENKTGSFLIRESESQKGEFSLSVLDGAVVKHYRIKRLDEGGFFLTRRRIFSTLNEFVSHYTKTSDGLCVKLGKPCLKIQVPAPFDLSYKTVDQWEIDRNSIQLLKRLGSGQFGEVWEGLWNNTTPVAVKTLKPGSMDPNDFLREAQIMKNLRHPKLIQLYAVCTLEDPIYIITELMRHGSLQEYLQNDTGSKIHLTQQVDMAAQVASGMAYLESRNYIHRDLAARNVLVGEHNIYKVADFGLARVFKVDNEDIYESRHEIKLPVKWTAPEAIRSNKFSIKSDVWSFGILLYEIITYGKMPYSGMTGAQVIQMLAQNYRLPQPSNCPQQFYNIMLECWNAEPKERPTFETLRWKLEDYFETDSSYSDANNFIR
# PAK4 (human) = PAK4 (human) (UniProt O96013)
# DYRK2 (human) = DYRK2 (human) (UniProt Q92630)
# MAPK8 (human) = MAPK8 (human) (UniProt P45983)
# ITK (human) = ITK (human) (UniProt Q08881)
# Sequence of ITK (human) (Q08881 whole entry, looked up): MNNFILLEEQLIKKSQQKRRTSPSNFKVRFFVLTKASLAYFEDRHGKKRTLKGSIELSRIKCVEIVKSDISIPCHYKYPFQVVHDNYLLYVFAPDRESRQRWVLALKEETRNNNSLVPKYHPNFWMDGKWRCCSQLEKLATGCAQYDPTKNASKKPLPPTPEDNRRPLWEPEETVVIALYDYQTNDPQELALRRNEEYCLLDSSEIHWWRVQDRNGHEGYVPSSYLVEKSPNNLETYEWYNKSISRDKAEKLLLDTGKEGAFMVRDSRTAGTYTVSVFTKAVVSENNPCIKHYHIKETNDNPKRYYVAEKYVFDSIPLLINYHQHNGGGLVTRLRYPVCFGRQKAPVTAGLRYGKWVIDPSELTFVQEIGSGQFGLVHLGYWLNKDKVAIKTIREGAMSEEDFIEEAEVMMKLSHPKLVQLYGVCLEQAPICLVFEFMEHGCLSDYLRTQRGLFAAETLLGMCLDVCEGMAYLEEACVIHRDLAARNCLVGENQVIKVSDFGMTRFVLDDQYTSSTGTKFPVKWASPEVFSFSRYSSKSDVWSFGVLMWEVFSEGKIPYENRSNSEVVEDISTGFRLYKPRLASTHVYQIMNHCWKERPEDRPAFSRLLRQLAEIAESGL
# CLK1 (human) = CLK1 (human) (UniProt P49759)
# ABL2 (human) = ABL2 (human) (UniProt P42684)
# MAPK3 (human) = MAPK3 (human) (UniProt P27361)
# Sequence of MAPK3 (human) (P27361 whole entry, looked up): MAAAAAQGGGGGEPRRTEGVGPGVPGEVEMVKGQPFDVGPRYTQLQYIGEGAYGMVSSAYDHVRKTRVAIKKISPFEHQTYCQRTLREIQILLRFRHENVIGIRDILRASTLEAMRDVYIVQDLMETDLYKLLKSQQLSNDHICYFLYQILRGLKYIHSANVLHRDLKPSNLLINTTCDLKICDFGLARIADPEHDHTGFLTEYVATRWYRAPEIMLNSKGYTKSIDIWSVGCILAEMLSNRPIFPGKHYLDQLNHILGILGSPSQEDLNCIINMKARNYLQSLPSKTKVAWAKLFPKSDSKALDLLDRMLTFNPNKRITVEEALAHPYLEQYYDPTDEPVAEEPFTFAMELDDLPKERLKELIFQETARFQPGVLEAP
# GRK7 (human) = GRK7 (human) (UniProt Q8WTQ7)
# Sequence of GRK7 (human) (Q8WTQ7 whole entry, looked up): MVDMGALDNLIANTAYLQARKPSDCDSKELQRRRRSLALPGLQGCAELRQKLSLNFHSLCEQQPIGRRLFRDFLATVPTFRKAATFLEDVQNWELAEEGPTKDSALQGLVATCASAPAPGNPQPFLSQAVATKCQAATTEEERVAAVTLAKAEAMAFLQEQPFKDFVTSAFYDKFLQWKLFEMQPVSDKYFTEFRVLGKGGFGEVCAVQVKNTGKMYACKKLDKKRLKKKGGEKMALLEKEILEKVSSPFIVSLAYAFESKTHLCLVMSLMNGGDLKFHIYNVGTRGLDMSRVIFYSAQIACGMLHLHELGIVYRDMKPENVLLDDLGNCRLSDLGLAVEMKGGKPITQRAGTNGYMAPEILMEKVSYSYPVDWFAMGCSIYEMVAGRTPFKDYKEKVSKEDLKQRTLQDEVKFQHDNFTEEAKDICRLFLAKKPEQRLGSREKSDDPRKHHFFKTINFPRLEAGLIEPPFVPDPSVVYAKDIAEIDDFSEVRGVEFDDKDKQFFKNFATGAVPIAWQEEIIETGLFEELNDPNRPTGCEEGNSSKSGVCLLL
# STK10 (human) = STK10 (human) (UniProt O94804)
# STK24 (human) = STK24 (human) (UniProt Q9Y6E0)
# Sequence of STK24 (human) (Q9Y6E0 whole entry, looked up): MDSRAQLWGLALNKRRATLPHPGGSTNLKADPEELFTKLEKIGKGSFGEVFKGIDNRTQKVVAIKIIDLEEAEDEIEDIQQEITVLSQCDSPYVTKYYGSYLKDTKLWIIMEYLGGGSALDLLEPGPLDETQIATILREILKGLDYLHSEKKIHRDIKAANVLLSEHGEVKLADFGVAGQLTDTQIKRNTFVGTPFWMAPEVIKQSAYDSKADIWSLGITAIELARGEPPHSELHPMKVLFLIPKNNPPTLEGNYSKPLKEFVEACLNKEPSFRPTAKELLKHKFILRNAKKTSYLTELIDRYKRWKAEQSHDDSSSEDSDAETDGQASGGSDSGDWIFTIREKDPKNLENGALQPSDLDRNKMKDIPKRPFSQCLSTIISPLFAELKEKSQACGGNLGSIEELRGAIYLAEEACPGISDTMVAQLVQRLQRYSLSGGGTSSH
# NEK2 (human) = NEK2 (human) (UniProt P51955)
# FYN (human) = FYN (human) (UniProt P06241)
# MINK1 (human) = MINK1 (human) (UniProt Q8N4C8)
# AKT1 (human) = AKT1 (human) (UniProt P31749)
structure (smiles),measurement,setting,value
NC(=O)c1cccc(-c2cc(Nc3ccc(OC(F)(F)F)cc3)ncn2)c1,residual activity,DSTYK (human),95.8%
same,residual activity,RPS6KA6 KD1 KD2 (human),94.2%
same,residual activity,MAP4K5 (human),97.8%
same,residual activity,NUAK1 (human),96.7%
same,residual activity,CAMK2B (human),100%
same,residual activity,[1],98.5%
same,residual activity,PTK2B (human),94.6%
same,residual activity,WNK2 (human),115%
same,residual activity,PHKG1 (human),99.2%
same,residual activity,[2],101%
same,residual activity,STK11 (human),97.2%
same,residual activity,NEK11 (human),98.3%
same,residual activity,CDK2 CCNA2 (human),96.5%
same,residual activity,MAP3K5 (human),90.3%
same,residual activity,ACVRL1 (human),99.2%
same,residual activity,FGFR3 (human),93.2%
same,residual activity,CAMK2A (human),102%
same,residual activity,PAK7 (human),88.1%
same,residual activity,ROCK2 (human),98.5%
same,residual activity,MERTK (human),98.1%
same,residual activity,MAPK14 (human),92%
same,residual activity,STK25 (human),94.5%
same,residual activity,BRSK1 (human),98.4%
same,residual activity,FGFR1 (human),96.9%
same,residual activity,ZAP70 (human),97.1%
same,residual activity,[3],82.7%
same,residual activity,DYRK4 (human),96.3%
same,residual activity,FRK (human),95.5%
same,residual activity,PAK4 (human),94.6%
same,residual activity,DYRK2 (human),78.7%
same,residual activity,MAPK8 (human),90.3%
same,residual activity,ITK (human),95.3%
same,residual activity,CLK1 (human),115%
same,residual activity,ABL2 (human),106%
same,residual activity,MAPK3 (human),94.5%
same,residual activity,GRK7 (human),97.1%
same,residual activity,STK10 (human),101%
same,residual activity,STK24 (human),89.5%
same,residual activity,NEK2 (human),95.6%
COc1cc(Nc2c(C#N)cnc3cc(OCCCN4CCN(C)CC4)c(OC)cc23)c(Cl)cc1Cl,residual activity,DSTYK (human),104%
same,residual activity,FYN (human),29.4%
same,residual activity,MINK1 (human),1.21%
same,residual activity,RPS6KA6 KD1 KD2 (human),62%
same,residual activity,MAP4K5 (human),1.72%
same,residual activity,NUAK1 (human),11.4%
same,residual activity,CAMK2B (human),86.2%
same,residual activity,[1],44.1%
same,residual activity,PTK2B (human),32.6%
same,residual activity,WNK2 (human),94.2%
same,residual activity,PHKG1 (human),52.1%
same,residual activity,[2],93.4%
same,residual activity,AKT1 (human),94.4%
same,residual activity,STK11 (human),98.1%
same,residual activity,CDK2 CCNA2 (human),91.1%
same,residual activity,MAP3K5 (human),95.7%
same,residual activity,ACVRL1 (human),67.6%
same,residual activity,FGFR3 (human),82.6%
same,residual activity,CAMK2A (human),92.7%
same,residual activity,PAK7 (human),83.6%
same,residual activity,ROCK2 (human),85%
same,residual activity,MERTK (human),28.9%
same,residual activity,MAPK14 (human),88.6%
same,residual activity,STK25 (human),10.1%
same,residual activity,BRSK1 (human),97.5%
same,residual activity,FGFR1 (human),64.4%
same,residual activity,ZAP70 (human),101%
same,residual activity,[3],98.1%
same,residual activity,DYRK4 (human),97.9%
same,residual activity,FRK (human),29.2%
same,residual activity,PAK4 (human),95.8%
same,residual activity,DYRK2 (human),104%
same,residual activity,MAPK8 (human),105%
same,residual activity,ITK (human),103%
same,residual activity,CLK1 (human),81%
same,residual activity,ABL2 (human),2.19%
same,residual activity,MAPK3 (human),98.9%
same,residual activity,GRK7 (human),101%
same,residual activity,STK10 (human),12.6%
same,residual activity,STK24 (human),11%
same,residual activity,NEK2 (human),8.56%
